The source of these data is US20250382344A1, “Soluble GLP1/GIP/NPY2 Receptor Triple Agonists” (Boehringer Ingelheim International GmH, priority 2024, published 2025).

By solubility is commonly meant the concentration that dissolves in the medium under given conditions. The EC50 is the concentration at which the effect is half-maximal.

Data set [1] can be described thus: Solubility in 0.1 M phosphate buffer at pH 7. The settings on record: 0.1 M phosphate buffer at pH 7, 10 mg/mL final peptide concentration, shaking 2 hours at room temperature, peptides as TFA-salts, measured sample pH 6.5-7.0. The data set is classed as physicochemical.
The target in another data set is T1, hGIPR (Homo sapiens, UniProt P48546).
T1 construct: expressed in transfected cells; host or cells: CHO CRE-luciferase reporter cells
T1 sequence (P48546 22-466): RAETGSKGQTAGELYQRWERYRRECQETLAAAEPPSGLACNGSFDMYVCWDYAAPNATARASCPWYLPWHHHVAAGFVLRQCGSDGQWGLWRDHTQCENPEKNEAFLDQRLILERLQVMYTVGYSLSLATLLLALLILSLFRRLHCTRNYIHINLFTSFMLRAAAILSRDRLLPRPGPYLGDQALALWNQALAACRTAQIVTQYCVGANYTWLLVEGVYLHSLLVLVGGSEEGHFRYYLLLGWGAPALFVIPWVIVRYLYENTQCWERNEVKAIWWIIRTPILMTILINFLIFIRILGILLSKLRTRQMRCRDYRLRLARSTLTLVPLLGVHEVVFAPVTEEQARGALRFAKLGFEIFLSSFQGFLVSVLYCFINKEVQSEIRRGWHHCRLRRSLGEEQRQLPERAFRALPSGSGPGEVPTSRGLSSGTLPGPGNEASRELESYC
Briefly: hGIPR CreLuc assay in 0.5% and 100% plasma (CHO CRE-luciferase reporter cells). The data set is classed as cell-based. The source says: CHO and HEK-293 recombinant cell lines express a luciferase reporter gene under control of the CAMP responsive element (CRE). As a second recombinant protein the GLP-1 and NPY2 receptors were expressed in the reporter gene HEK cells, and the GIP receptor was expressed in the reporter gene CHO cells, respectively. Stimulation of these recombinant cells with an agonist leads to an increase of intracellular CAMP levels. In the presence of CAMP, the transcription factor CRE binding protein (CREB) binds to the CRE and to the CREB binding protein (CBP), which leads to transcription of the luciferase reporter gene. Peptides upon serial-dilution in 100% DMSO were transferred into 384-well assay plates with 5 μl pre-dispensed assay buffer (1×HBSS, 20 mM HEPES, pH7.4 supplemented with 0.5% human plasma) using acoustic dispensing on a Labcyte ECHO. Cryo-preserved transgenic reporter gene cells were thawed in assay buffer. 20 μl (10.000 cells/well) were added to the plate with the peptides and incubated for 4 hours at 37° C. in a humidified incubator. Following incubation, assay plates are equilibrated to room temperature, followed by addition of 25 μl of Bright-Glo™ Luciferase reagent, incubation at room temperature for 10 minutes and analysis of luminescence (Envision Reader). […] EC50 values were calculated by non-linear regression using sigmoid concentration-response with variable slope.
The same assays were run in the presence of 100% plasma with no additional buffer constituents.
Background: A reporter such as luciferase makes a cellular process visible.

Read-outs that look alike come from different tables or passages of the source. Where a SMILES comes first, the peptide text is derived from it. Side-chain parts run from the residue outwards. [ ]: non-standard residue; d: D form. The star is where a group is joined. ξ: configuration not given here. C18 diacid = O=C(O)CCCCCCCCCCCCCCCCC(=O)*; NMeY = CN[C@@H](Cc1ccc(O)cc1)C(=O)O; Palmitoyl = CCCCCCCCCCCCCCCC(=O)*; αMeF = C[C@](N)(Cc1ccccc1)C(=O)O; ξIva = CCC(C)(N)C(=O)O; Aib = CC(C)(N)C(=O)O Bounds are passed on as bounds.

Turning to `CC[C@H](C)[C@H](NC(=O)[C@H](CC(C)C)NC(=O)[C@H](Cc1c[nH]cn1)NC(=O)[C@H](CCCNC(=N)N)NC(=O)[C@@H](NC(=O)[C@H](Cc1ccccc1)NC(=O)[C@H](C)NC(=O)C(C)(C)NC(=O)[C@H](CCC(N)=O)NC(=O)[C@H](C)NC(=O)[C@H](CCC(N)=O)NC(=O)[C@H](CCCCN)NC(=O)[C@H](CCC(=O)O)NC(=O)[C@H](CC(C)C)NC(=O)C(C)(C)NC(=O)[C@@H](NC(=O)[C@H](CO)NC(=O)[C@H](CC(C)C)NC(=O)[C@H](CC(=O)O)NC(=O)[C@H](CO)NC(=O)[C@@H](NC(=O)[C@H](Cc1ccccc1)NC(=O)[C@@H](NC(=O)CNC(=O)[C@H](CCC(=O)O)NC(=O)C(C)(C)NC(=O)[C@@H](N)Cc1ccc(O)cc1)[C@@H](C)O)[C@@H](C)O)[C@@H](C)CC)C(C)C)C(=O)N[C@@H](CC(N)=O)C(=O)N[C@@H](CCCCNC(=O)CCCCCNC(=O)CCCCCNC(=O)CC[C@H](NC(=O)CC[C@H](NC(=O)CC[C@H](NC(=O)CC[C@H](NC(=O)CC[C@H](NC(=O)CCCCCCCCCCCCCCCCCCC(=O)O)C(=O)O)C(=O)O)C(=O)O)C(=O)O)C(=O)O)C(=O)NC(C)(C)C(=O)N[C@H](C(=O)N[C@@H](CCCNC(=N)N)C(=O)N[C@@H](CCC(N)=O)C(=O)N[C@@H](CCCNC(=N)N)C(=O)N[C@@H](Cc1ccc(O)cc1)C(N)=O)[C@@H](C)O` [Compound 1, Y-Aib-E-G-T-F-T-S-D-L-S-I-Aib-L-E-K-Q-A-Q-Aib-A-F-V-R-H-L-I-N-K(1,3)-Aib-T-R-Q-R-Y-NH2.C20DA-gGlu-gGlu-gGlu-gGlu-gGlu-AHX-AHX(1,2)], in data set [1], the solubility at 2 h worked out at 9800 µg/mL. Further, the EC50 at hGIPR (hGIPR 0.5% hP (nM), 0.5% human plasma) was 0.2 nM; at hGIPR (hGIPR 100% hP (nM), 100% human plasma), 10.3 nM.

In the case of `CC[C@H](C)[C@H](NC(=O)[C@H](CC(C)C)NC(=O)[C@H](Cc1c[nH]cn1)NC(=O)[C@H](CCCNC(=N)N)NC(=O)[C@@H](NC(=O)[C@H](Cc1ccccc1)NC(=O)[C@H](C)NC(=O)C(C)(C)NC(=O)[C@H](CCC(N)=O)NC(=O)[C@H](C)NC(=O)[C@H](CCC(N)=O)NC(=O)[C@H](CCCCN)NC(=O)[C@H](CCC(=O)O)NC(=O)[C@H](CC(C)C)NC(=O)C(C)(C)NC(=O)[C@@H](NC(=O)[C@H](CO)NC(=O)[C@H](Cc1ccc(O)cc1)NC(=O)[C@H](CC(=O)O)NC(=O)[C@H](CO)NC(=O)[C@@H](NC(=O)[C@H](Cc1ccccc1)NC(=O)[C@@H](NC(=O)CNC(=O)[C@H](CCC(=O)O)NC(=O)C(C)(C)NC(=O)[C@@H](N)Cc1ccc(O)cc1)[C@@H](C)O)[C@@H](C)O)[C@@H](C)CC)C(C)C)C(=O)N[C@@H](CC(N)=O)C(=O)N[C@@H](CCCCNC(=O)[C@@H](N)CCNC(=O)CC[C@H](NC(=O)CC[C@H](NC(=O)CC[C@H](NC(=O)CC[C@H](NC(=O)CC[C@H](NC(=O)CC[C@H](NC(=O)CCCCCCCCCCCCCCCCC(=O)O)C(=O)O)C(=O)O)C(=O)O)C(=O)O)C(=O)O)C(=O)O)C(=O)NC(C)(C)C(=O)N[C@H](C(=O)N[C@@H](CCCNC(=N)N)C(=O)N[C@@H](CCC(N)=O)C(=O)N[C@@H](CCCNC(=N)N)C(=O)N[C@@H](Cc1ccc(O)cc1)C(N)=O)[C@@H](C)O` [Compound 120, Y-Aib-E-G-T-F-T-S-D-Y-S-I-Aib-L-E-K-Q-A-Q-Aib-A-F-V-R-H-L-I-N-K(1,3)-Aib-T-R-Q-R-Y-NH2.C18DA-gGlu-gGlu-gGlu-gGlu-gGlu-gGlu-gDab(1,2)], the solubility in data set [1] (read-out: Solubility) was found to be 4700 µg/mL.

`CC[C@H](C)[C@H](NC(=O)[C@H](C)NC(=O)[C@H](Cc1c[nH]cn1)NC(=O)[C@H](CCCNC(=N)N)NC(=O)[C@@H](NC(=O)[C@H](Cc1ccccc1)NC(=O)[C@H](C)NC(=O)C(C)(C)NC(=O)[C@H](CCC(N)=O)NC(=O)[C@H](C)NC(=O)[C@H](CCC(N)=O)NC(=O)[C@H](CCCCN)NC(=O)[C@H](CCC(=O)O)NC(=O)[C@H](CC(C)C)NC(=O)C(C)(C)NC(=O)[C@@H](NC(=O)[C@H](CO)NC(=O)[C@H](Cc1ccc(O)cc1)NC(=O)[C@H](CC(=O)O)NC(=O)[C@H](CO)NC(=O)[C@@H](NC(=O)[C@H](Cc1ccccc1)NC(=O)[C@@H](NC(=O)CNC(=O)[C@H](CCC(=O)O)NC(=O)C(C)(C)NC(=O)[C@@H](N)Cc1ccc(O)cc1)[C@@H](C)O)[C@@H](C)O)[C@@H](C)CC)C(C)C)C(=O)N[C@@H](CC(N)=O)C(=O)N[C@@H](CCCCNC(=O)[C@@H](N)CCCCNC(=O)CC[C@H](NC(=O)CC[C@H](NC(=O)CC[C@H](NC(=O)CC[C@H](NC(=O)CC[C@H](NC(=O)CC[C@H](NC(=O)CCCCCCCCCCCCCCCCC(=O)O)C(=O)O)C(=O)O)C(=O)O)C(=O)O)C(=O)O)C(=O)O)C(=O)NC(C)(C)C(=O)N[C@H](C(=O)N[C@@H](CCCNC(=N)N)C(=O)N[C@@H](CCC(N)=O)C(=O)N[C@@H](CCCNC(=N)N)C(=O)N[C@@H](Cc1ccc(O)cc1)C(N)=O)[C@@H](C)O` [Compound 139, Y-Aib-E-G-T-F-T-S-D-Y-S-I-Aib-L-E-K-Q-A-Q-Aib-A-F-V-R-H-A-I-N-K(1,3)-Aib-T-R-Q-R-Y-NH2.C18DA-gGlu-gGlu-gGlu-gGlu-gGlu-gGlu-eLys(1,2)]: in data set [1], the solubility at 2 h is 9000 µg/mL.

Consider `CCCCCCCCCCCCCCCC(=O)NCC(=O)NCC(=O)NCC(=O)NCC(=O)NCCCC[C@H](NC(=O)[C@H](CC(=O)O)NC(=O)[C@H](CO)NC(=O)[C@@H](NC(=O)[C@](C)(Cc1ccccc1)NC(=O)[C@@H](NC(=O)CNC(=O)[C@H](CCC(=O)O)NC(=O)C(C)(C)NC(=O)[C@H](Cc1ccc(O)cc1)NC)[C@@H](C)O)[C@@H](C)O)C(=O)N[C@@H](CO)C(=O)N[C@H](C(=O)NC(C)(C)C(=O)N[C@@H](CC(C)C)C(=O)N[C@@H](CCC(=O)O)C(=O)N[C@@H](CCCCN)C(=O)N[C@@H](CCC(N)=O)C(=O)N[C@@H](CCCNC(=N)N)C(=O)N[C@@H](CCC(N)=O)C(=O)NC(C)(CC)C(=O)N[C@@H](CCC(=O)O)C(=O)N[C@@H](Cc1ccccc1)C(=O)N[C@H](C(=O)N[C@@H](CCCNC(=N)N)C(=O)N[C@@H](Cc1c[nH]cn1)C(=O)N[C@@H](CC(C)C)C(=O)N[C@@H](CC(C)C)C(=O)N[C@@H](CC(N)=O)C(=O)N[C@@H](CCCCN)C(=O)NC(C)(C)C(=O)N[C@H](C(=O)N[C@@H](CCCNC(=N)N)C(=O)N[C@@H](CCC(N)=O)C(=O)N[C@@H](CCCNC(=N)N)C(=O)N[C@@H](Cc1ccc(O)cc1)C(N)=O)[C@@H](C)O)C(C)C)[C@@H](C)CC` (stereo partly drawn) [Ref. 1, NMeY-Aib-E-G-T-aMeF-T-S-D-K(1,3)-S-I-Aib-L-E-K-Q-R-Q-Iva-E-F-V-R-H-L-L-N-K-Aib-T-R-Q-R-Y-NH2.C16A-G-G-G-G(1,2), reference compound] (H-[NMeY][Aib]EGT[αMeF]TSDK([Gly-Gly-Gly-Gly-Palmitoyl])SI[Aib]LEKQRQ[ξIva]EFVRHLLNK[Aib]TRQRY-NH2), for which, in data set [1], the “solubility” value was below 1000 µg/mL and the solubility at 2 h was below 1000 µg/mL.

Regarding `CC[C@H](C)[C@H](NC(=O)[C@H](CO)NC(=O)[C@H](CCCCNC(=O)CNC(=O)CNC(=O)CNC(=O)CNC(=O)CCCCCCCCCCCCCCCCC(=O)O)NC(=O)[C@H](CC(=O)O)NC(=O)[C@H](CO)NC(=O)[C@@H](NC(=O)[C@](C)(Cc1ccccc1)NC(=O)[C@@H](NC(=O)CNC(=O)[C@H](CCC(=O)O)NC(=O)C(C)(C)NC(=O)[C@@H](N)Cc1ccc(O)cc1)[C@@H](C)O)[C@@H](C)O)C(=O)NC(C)(C)C(=O)N[C@@H](CC(C)C)C(=O)N[C@@H](CCC(=O)O)C(=O)N[C@@H](CCCCN)C(=O)N[C@@H](CCC(N)=O)C(=O)N[C@@H](CCCNC(=N)N)C(=O)N[C@@H](CCC(N)=O)C(=O)NC(C)(CC)C(=O)N[C@@H](CCC(=O)O)C(=O)N[C@@H](Cc1ccccc1)C(=O)N[C@H](C(=O)N[C@@H](CCCNC(=N)N)C(=O)N[C@@H](Cc1c[nH]cn1)C(=O)N[C@@H](CC(C)C)C(=O)N[C@@H](CC(C)C)C(=O)N[C@@H](CC(N)=O)C(=O)N[C@@H](CCCCN)C(=O)NC(C)(C)C(=O)N[C@H](C(=O)N[C@@H](CCCNC(=N)N)C(=O)N[C@@H](CCC(N)=O)C(=O)N[C@@H](CCCNC(=N)N)C(=O)N[C@@H](Cc1ccc(O)cc1)C(N)=O)[C@@H](C)O)C(C)C` (stereo partly drawn) [Ref. 3, Y-Aib-E-G-T-aMeF-T-S-D-K(1,3)-S-I-Aib-L-E-K-Q-R-Q-Iva-E-F-V-R-H-L-L-N-K-Aib-T-R-Q-R-Y-NH2.C18DA-G-G-G-G(1,2), reference compound] (H-Y[Aib]EGT[αMeF]TSDK([Gly-Gly-Gly-Gly-C18 diacid])SI[Aib]LEKQRQ[ξIva]EFVRHLLNK[Aib]TRQRY-NH2), in data set [1], the “solubility” value is below 1000 µg/mL and the solubility at 2 h is below 1000 µg/mL.
